Experimental data reported in ChEMBL document CHEMBL3885861, “Open TG-GATES”.

Species: Rattus norvegicus
Assay: Open TG-GATES - Regimen: Single
Format: toxicity, organism-based, Sprague-Dawley
Design: regimen Single, gender Male, age 6 weeks
Details: in vivo, po, route gavage; for APTT / Bas / Eos / Fbg / Hb / Ht / Lym / MCH / MCHC / MCV / Mono / Neu / PT / Plat / RBC / Ret / WBC: tissue Blood; for KIDNEY_L / KIDNEY_R / KIDNEY_TOTAL: tissue Kidney; for LIVER: tissue Liver; for ALP / ALT / AST / BUN / CRE / Ca / Cl / DBIL / GLC / IP / K / LDH / Na / PL / RALB / TBIL / TC / TG / TP / gamma-GTP: tissue Plasma
[1] = 100 mg/kg, 24 h, dose level Low

`COC(=O)C1=C(C)NC(C)=C(C(=O)OC)C1c1ccccc1[N+](=O)[O-]` [NIFEDIPINE] gave an APTT (100 mg/kg, 9 h, dose level Low) of 15.8 s, a Bas (100 mg/kg, 9 h, dose level Low) of 0% and an Eos (100 mg/kg, 9 h, dose level Low) of 0.6%. For the same compound, the Fbg (100 mg/kg, 9 h, dose level Low) was 292.2 mg/dL, the Hb (100 mg/kg, 9 h, dose level Low) was 12.7 g/dL and the Ht (100 mg/kg, 9 h, dose level Low) was 38.7%. The Lym (100 mg/kg, 9 h, dose level Low) was 80.2%, the MCH (100 mg/kg, 9 h, dose level Low) was 20.8 pg and the MCHC (100 mg/kg, 9 h, dose level Low) was 32.9%. For the same compound, the MCV (100 mg/kg, 9 h, dose level Low) was 63.3 fL, the Mono (100 mg/kg, 9 h, dose level Low) was 2.8% and the Neu (100 mg/kg, 9 h, dose level Low) was 14.8%. The PT (100 mg/kg, 9 h, dose level Low) was 14.6 s, the Plat (100 mg/kg, 9 h, dose level Low) was 127.7 x10_4/uL and the RBC (100 mg/kg, 9 h, dose level Low) was 610.8 x10_4/ul. The Ret (100 mg/kg, 9 h, dose level Low) was 9.7%, the WBC (100 mg/kg, 9 h, dose level Low) was 116.7 x10_2/uL and the KIDNEY_L (100 mg/kg, 9 h, dose level Low) was 0.9 g. It also gave a KIDNEY_R (100 mg/kg, 9 h, dose level Low) of 0.9 g, a KIDNEY_TOTAL (100 mg/kg, 9 h, dose level Low) of 1.7 g and an LIVER (100 mg/kg, 9 h, dose level Low) of 7.4 g. It also gave an ALP (100 mg/kg, 9 h, dose level Low) of 1305.6 IU/L, an ALT (100 mg/kg, 9 h, dose level Low) of 46.4 IU/L and an AST (100 mg/kg, 9 h, dose level Low) of 75.6 IU/L. It also gave a BUN (100 mg/kg, 9 h, dose level Low) of 17.8 mg/dL, a CRE (100 mg/kg, 9 h, dose level Low) of 0.2 mg/dL and a Ca (100 mg/kg, 9 h, dose level Low) of 10.9 mg/dL. For the same compound, the Cl (100 mg/kg, 9 h, dose level Low) was 102 meq/L, the DBIL (100 mg/kg, 9 h, dose level Low) was 0.008 mg/dL and the GLC (100 mg/kg, 9 h, dose level Low) was 178.6 mg/dL. For the same compound, the IP (100 mg/kg, 9 h, dose level Low) was 10.8 mg/dL, the K (100 mg/kg, 9 h, dose level Low) was 4.6 meq/L and the LDH (100 mg/kg, 9 h, dose level Low) was 76 IU/L. It also gave a Na (100 mg/kg, 9 h, dose level Low) of 138.6 meq/L, a PL (100 mg/kg, 9 h, dose level Low) of 152 mg/dL and an RALB (100 mg/kg, 9 h, dose level Low) of 2.6 g/dL. It also gave a TBIL (100 mg/kg, 9 h, dose level Low) of 0.046 mg/dL, a TC (100 mg/kg, 9 h, dose level Low) of 90.6 mg/dL and a TG (100 mg/kg, 9 h, dose level Low) of 28.2 mg/dL. The TP (100 mg/kg, 9 h, dose level Low) was 5.4 g/dL, the gamma-GTP (100 mg/kg, 9 h, dose level Low) was 1.2 IU/L and the TERMINAL_BW [1] was 206.2 g. It also gave an APTT [1] of 16.5 s, a Bas [1] of 0% and an Eos [1] of 1%. It also gave a Fbg [1] of 267.8 mg/dL, a Hb [1] of 13 g/dL and a Ht [1] of 40.5%. It also gave a Lym [1] of 65.6%, an MCH [1] of 20.8 pg and an MCHC [1] of 32.2%. For the same compound, the MCV [1] was 64.5 fL, the Mono [1] was 3.8% and the Neu [1] was 29%. For the same compound, the PT [1] was 13.9 s, the Plat [1] was 133.1 x10_4/uL and the RBC [1] was 629 x10_4/ul. The Ret [1] was 8.8%, the WBC [1] was 87.9 x10_2/uL and the KIDNEY_L [1] was 0.9 g. For the same compound, the KIDNEY_R [1] was 0.9 g, the KIDNEY_TOTAL [1] was 1.8 g and the LIVER [1] was 9.3 g. For the same compound, the ALP [1] was 2046.4 IU/L, the ALT [1] was 44.4 IU/L and the AST [1] was 70.8 IU/L. The BUN [1] was 14.6 mg/dL, the CRE [1] was 0.2 mg/dL and the Ca [1] was 10.6 mg/dL. For the same compound, the Cl [1] was 109.4 meq/L, the DBIL [1] was 0.016 mg/dL and the GLC [1] was 177 mg/dL. The IP [1] was 7.4 mg/dL, the K [1] was 4.4 meq/L and the LDH [1] was 82.6 IU/L. For the same compound, the Na [1] was 146 meq/L, the PL [1] was 132.8 mg/dL and the RALB [1] was 2.6 g/dL. For the same compound, the TBIL [1] was 0.03 mg/dL, the TC [1] was 68.4 mg/dL and the TG [1] was 87.8 mg/dL. The TP [1] was 5.5 g/dL, the gamma-GTP [1] was 1.2 IU/L and the TERMINAL_BW (300 mg/kg, 3 h, dose level Middle) was 203.9 g.
